In ChEMBL document CHEMBL1828555, “Primary amino acid derivatives: substitution of the 4'-N'-benzylamide site in (R)-N'-benzyl 2-amino-3-methylbutanamide, (R)-N'-benzyl 2-amino-3,3-dimethylbutanamide, and (R)-N'-benzyl 2-amino-3-methoxypropionamide provides potent anticonvulsants with pain-attenuating properties” (J Med Chem, 2011):
Active and inactive are the calls of the source. No cut-off for these calls is given here.

Assays:
[1] = system: Mus musculus; assay: Anticonvulsant activity in ip dosed albino CF1 mouse assessed as protection against subcutaneous pentylenetetrazol-induced seizure; format: functional, organism-based
[2] = Neurotoxicity in ip dosed albino CF1 mouse assessed as median neurological impairing dose after 30 mins; format: toxicity, organism-based; details: in vivo
[3] = system: Mus musculus; assay: Anticonvulsant activity in ip dosed albino CF1 mouse assessed as protection against maximal electroshock-induced seizure after 30 mins; format: functional; details: 0.5 h
[4] = system: Rattus norvegicus; assay: Anticonvulsant activity in po dosed albino Sprague-Dawley rat assessed as protection against maximal electroshock seizure; format: functional
[5] = system: Rattus norvegicus; assay: Toxicity in po dosed albino Sprague-Dawley rat assessed as time of peak effect for behavioural toxicity; format: organism-based; details: in vivo
[6] = system: Rattus norvegicus; assay: Anticonvulsant activity in po dosed albino Sprague-Dawley rat assessed as time of peak effect for protection against maximal electroshock seizure; format: functional
[7] = Toxicity in po dosed albino Sprague-Dawley rat assessed as behavioural toxicity; format: organism-based; details: in vivo
[8] = Neurotoxicity in ip dosed NMRI mouse assessed as median neurological impairing dose after 30 mins by rotarod test; format: toxicity, organism-based; details: in vivo
[9] = system: Mus musculus; assay: Analgesic activity in ip dosed NMRI mouse assessed as reduction in formalin-induced neuropathic pain after 30 mins; format: functional; details: 0.5 h
[10] = system: Mus musculus; assay: Anticonvulsant activity in ip dosed NMRI mouse assessed as protection against maximal electroshock seizure after 30 mins; format: functional; details: 0.5 h
[11] = system: Mus musculus; assay: Protective index, ratio of TD50 for ip dosed NMRI mouse to ED50 for ip dosed NMRI mouse by maximal electroshock test; format: functional
[12] = system: Mus musculus; assay: Anticonvulsant activity in ip dosed 6 Hz psychomotor seizure model of NMRI mouse assessed as protection against seizure after 30 minutes; format: functional; details: 0.5 h
[13] = system: Mus musculus; assay: Neurotoxicity in ip dosed albino CF1 mouse assessed as time of peak effect for median neurological impairing; format: toxicity, organism-based; details: in vivo
[14] = system: Rattus norvegicus; assay: Protective index, ratio of TD50 for po dosed albino Sprague-Dawley rat to ED50 for po dosed albino Sprague-Dawley rat by maximal electroshock test; format: functional
[15] = system: Mus musculus; assay: Anticonvulsant activity in ip dosed albino CF1 mouse assessed as protection against 6 Hz psychomotor seizure after 30 mins; format: functional; details: 0.5 h
[16] = system: Mus musculus; assay: Anticonvulsant activity in ip dosed albino CF1 mouse assessed as time of peak effect for protection against 6 Hz psychomotor seizure; format: functional
[17] = system: Mus musculus; assay: Protective index, ratio of TD50 for ip dosed albino CF1 mouse to ED50 for ip dosed albino CF1 mouse by maximal electroshock test; format: functional
[18] = system: Mus musculus; assay: Anticonvulsant activity in ip dosed albino CF1 mouse assessed as time of peak effect for protection against maximal electroshock-induced seizure; format: functional

| SMILES | Activity [1] | TD50 at 0.5 h [2] | ED50 [3] | ED50 [4] | Time [5] | Time [6] | TD50 [7] | TD50 at 0.5 h [8] | ED50 [9] | ED50 [10] | Ratio TD50/ED50 [11] | ED50 [12] | Time [13] | Ratio TD50/ED50 [14] | ED50 [15] | Time [16] | Ratio TD50/ED50 [17] | Time [18] |
| --- | --- | --- | --- | --- | --- | --- | --- | --- | --- | --- | --- | --- | --- | --- | --- | --- | --- | --- |
| COC[C@H](N)C(=O)NCc1ccc(COc2cccc(F)c2)cc1 | inactive | 100 mg/kg | 30 mg/kg | – | – | – | – | – | – | – | – | – | – | – | – | – | – | – |
| CC(C)[C@H](N)C(=O)NCc1ccc(COc2cccc(F)c2)cc1 | inactive | 100 mg/kg | 30 mg/kg | > 30 mg/kg | 0.25 h | 0.25 h | > 30 mg/kg | – | – | – | – | – | – | – | – | – | – | – |
| COC[C@H](N)C(=O)NCc1ccccc1 | inactive | – | – | – | – | – | – | 63 mg/kg | 120 mg/kg | 64 mg/kg | 1 | > 70 mg/kg | – | – | – | – | – | – |
| CC(C)[C@@H](N)C(=O)NCc1ccc(C(F)(F)F)cc1 | inactive | 57 mg/kg | 14 mg/kg | 13 mg/kg | – | 1 h | > 500 mg/kg | – | – | – | – | – | 0.25 h | >38 | 30 mg/kg | 0.5 h | 4.1 | 0.5 h |
| CC(C)[C@@H](N)C(=O)NCc1ccc(-c2ccccc2)cc1 | inactive | > 300 mg/kg | 30 mg/kg | 30 mg/kg | 0.25 h | 2 h | > 30 mg/kg | – | – | – | – | – | 0.5 h | – | – | – | – | 0.5 h |
| CC(C)[C@@H](N)C(=O)NCc1ccc(COc2cccc(F)c2)cc1 | inactive | 71 mg/kg | 18 mg/kg | < 30 mg/kg | 0.25 h | 0.5 h | > 30 mg/kg | – | 30 mg/kg | 12 mg/kg | 3.9 | > 110 mg/kg | 0.5 h | – | 30 mg/kg | 0.5 h | – | 0.25 h |
| COC[C@@H](NC(C)=O)C(=O)NCc1ccccc1 [LACOSAMIDE] | – | 27 mg/kg | – | – | – | 2 h | > 500 mg/kg | 19 mg/kg | 15 mg/kg | 3.3 mg/kg | – | 10 mg/kg | 0.25 h | – | 10 mg/kg | – | – | 0.5 h |
| COC[C@@H](N)C(=O)NCc1ccccc1.Cl | inactive | 30 mg/kg | 48 mg/kg | – | – | – | – | > 120 mg/kg | > 67 mg/kg | 34 mg/kg | >3.5 | > 67 mg/kg | 0.25 h | – | – | – | – | 0.25 h |
| CC(C)[C@H](N)C(=O)NCc1ccccc1 | inactive | > 300 mg/kg | > 300 mg/kg | – | – | – | – | – | – | – | – | – | – | – | – | – | – | – |
| CC(C)(C)[C@@H](N)C(=O)NCc1ccc(-c2ccccc2)cc1 | inactive | 30 mg/kg | 30 mg/kg | – | – | – | – | – | – | – | – | – | 0.5 h | – | – | – | – | 0.5 h |
| Cc1ccc(CNC(=O)[C@H](N)C(C)C)cc1 | inactive | > 300 mg/kg | > 300 mg/kg | 50 mg/kg | 0.25 h | 1 h | > 50 mg/kg | – | – | – | – | – | 0.5 h | – | – | – | – | 0.5 h |
| CC(C)(C)[C@@H](N)C(=O)NCc1ccc(C(F)(F)F)cc1 | inactive | 133 mg/kg | 24 mg/kg | < 30 mg/kg | 0.25 h | 0.5 h | > 30 mg/kg | – | – | – | – | – | 0.25 h | – | – | – | 5.5 | 0.25 h |
| CC(C)(C)[C@@H](N)C(=O)NCc1ccc(COc2cccc(F)c2)cc1 | inactive | 100 mg/kg | 30 mg/kg | 30 mg/kg | 0.25 h | 2 h | > 30 mg/kg | – | – | – | – | – | 0.5 h | – | > 75 mg/kg | – | – | 0.5 h |
| COc1ccc(CNC(=O)[C@H](N)C(C)C)cc1 | inactive | 30 mg/kg | > 300 mg/kg | > 30 mg/kg | 0.25 h | 0.25 h | > 30 mg/kg | – | – | – | – | – | 0.5 h | – | – | – | – | 0.5 h |
